Source: US20260176284A1, “Compounds with Anti-KRAS Mutated Tumor Activity” (Trasveda Ltd., priority 2022, published 2026)

tested on: KRAS G12D mutated AGS human gastric adenocarcinoma cells; assay: Proliferation inhibition of KRAS G12D mutant AGS cells, another experiment with similar protocol (includes MRTX1133); format: cell-based; details: not given
Method: In another experiment, using a protocol similar to the one described above, the inhibitory activity of some representative compounds of the present invention against KRAS G12D mutated AGS human gastric adenocarcinoma cells was determined.
The synthesis of compound MRTX1133 was performed according to the method described in J. Med. Chem. 2022, 65, 4, 3123-3133.

In the case of `CN1CC[C@H](C(F)F)[C@](C)(COc2nc(N3C[C@H]4CC[C@@H](C3)N4)c3cc(Cl)c(-c4cccc5sc(N)c(C#N)c45)c(F)c3n2)C1` [Example 312-1, (4-((1R,5S)-3,8-diazabicyclo[3.2.1]octan-3-yl)-6-chloro-2-(((3S,4S)-4-(difluoromethyl)-1,3-dimethylpiperidin-3-yl)methoxy)-8-fluoroquinazolin-7-yl)-2-aminobenzo[b]thiophene-3-carbonitrile], the IC50 is reported as 11 nM.

same assay, conditions: Homo sapiens

In order of rising IC50:
1. C#Cc1c(F)ccc2cc(O)cc(-c3nc(OC)c4c(N5C[C@H]6CC[C@@H](C5)N6)nc(OC[C@]5(C)CN(C)CC[C@@H]5CF)nc4c3F)c12 [Example 260, 4-(4-((1R,5S)-3,8-diazabicyclo[3.2.1]octan-3-yl)-8-fluoro-2-(((3S,4S)-4-(fluoromethyl)-1,3-dimethylpiperidin-3-yl)methoxy)-5-methoxypyrido[4,3-d]pyrimidin-7-yl)-5-ethynyl-6-fluoronaphthalen-2-ol]  3 nM
2. C#Cc1c(F)ccc2cc(O)cc(-c3nc(OC)c4c(N5C[C@H]6CC[C@@H](C5)N6)nc(OC[C@]5(C)CN(C)CC[C@H]5F)nc4c3F)c12 [Example 263, 4-(4-((1R,5S)-3,8-diazabicyclo[3.2.1]octan-3-yl)-8-fluoro-2-(((3S,4R)-4-fluoro-1,3-dimethylpiperidin-3-yl)methoxy)-5-methoxypyrido[4,3-d]pyrimidin-7-yl)-5-ethynyl-6-fluoronaphthalen-2-ol]  12 nM
3. C#Cc1c(F)ccc2cc(O)cc(-c3nc(OC)c4c(N5C[C@H]6CC[C@@H](C5)N6)nc(OC[C@]5(C)CN(C)CC[C@@H]5F)nc4c3F)c12 [Example 262, 4-(4-((1R,5S)-3,8-diazabicyclo[3.2.1]octan-3-yl)-8-fluoro-2-(((3S,4S)-4-fluoro-1,3-dimethylpiperidin-3-yl)methoxy)-5-methoxypyrido[4,3-d]pyrimidin-7-yl)-5-ethynyl-6-fluoronaphthalen-2-ol]  15 nM
4. CN1CC[C@H](C(F)F)[C@](C)(COc2nc(N3C[C@H]4CC[C@@H](C3)N4)c3cc(Cl)c(-c4cccc5sc(N)c(C#N)c45)c(F)c3n2)C1 [Example 312, 4-(4-((1R,5S)-3,8-diazabicyclo[3.2.1]octan-3-yl)-6-chloro-2-(((3S,4S)-4-(difluoromethyl)-1,3-dimethylpiperidin-3-yl)methoxy)-8-fluoroquinazolin-7-yl)-2-aminobenzo[b]thiophen-3-nitrile]  25 nM
5. CN1CC/C(=C\F)[C@](C)(COc2nc(N3C[C@H]4CC[C@@H](C3)N4)c3cc(C(F)(F)F)c(-c4cccc5sc(N)c(C#N)c45)c(F)c3n2)C1 [Example 318, 4-(4-((1R,5S)-3,8-diazabicyclo[3.2.1]octan-3-yl)-8-fluoro-2-(((S,E)-4-(fluoromethylene)-1,3-dimethylpiperidin-3-yl)methoxy)-6-(trifluoromethyl)quinazolin-7-yl)-2-aminobenzo[b]thiophene-3-carbonitrile]  28 nM
6. CN1CC[C@H](C(F)F)[C@](C)(COc2nc(N3C[C@H]4CC[C@@H](C3)N4)c3cc(C#N)c(-c4cccc5sc(N)c(C#N)c45)c(F)c3n2)C1 [Example 328, 7-(2-amino-3-cyanobenzo[b]thiophen-4-yl)-4-((1R,5S)-3,8-diazabicyclo[3.2.1]octan-3-yl)-2-(((3S,4S)-4-(difluoromethyl)-1,3-dimethylpiperidin-3-yl)methoxy)-8-fluoroquinazoline-6-carbonitrile]  45 nM
